Measurements from patent US7671054B1, “Reverse-turn mimetics and method relating thereto” (Choongwae Pharma Corporation, priority 2001, dated 2010).
Read-outs that look alike come from different tables or passages of the source.

Tests used:
[1] = system: HCT116 cells; assay: Growth inhibition assay (MTS); type: cell-based; conditions: Homo sapiens, read-out: Growth Inhibition (GI50, uM) HCT116
Procedure: (§1) SW480 or HCT116 cells were placed into 96 well microplate (10^4cells/well) and incubated for 24 hours at 37° C. 20 μl of [3-(4,5-dimethylthiazol-2-yl)-5-(3-carboxyphenyl)-2-(4-sulfophenyl)-2H-tetrazolium, inner salt](MTS) solution (Promega) was added into each well and the absorbance after 2 hour incubation at 37° C. (negative control) was read. And then, the cells were treated with TCF4 compound at various concentrations for 48 hours. 20 μl of MTS solution (Promega) was added into each well and incubated for 2 hour at 37° C. Cell viability was measured by reading the absorbance at 490 nm using a microplate reader (Molecular device) and cytotoxicity of a compound at each concentration was calculated.
as §1, with “a test” for “TCF4”

[2] = system: SW480 cells; assay: Growth inhibition assay (MTS); type: cell-based; conditions: Homo sapiens, read-out: Growth Inhibition (GI50, uM) SW480
Procedure: as §1
as §1, with “a test” for “TCF4”

[3] = HCT-116, 48 h, Table 5, HCT116 cells, 48 hours treatment, MTS
[4] = SW480, 48 h, Table 5, SW480 cells, 48 hours treatment, MTS
[5] = HCT-116, Table 5, HCT116 cells, 48 hours treatment, MTS
[6] = Table 5, SW480 cells, 48 hours treatment, MTS

GI50 [1, 3] [µM]	GI50 [2, 4] [µM]	SMILES	also measured
1.9 ± 0.2	2.2 ± 0.3	C=CCN1CC(=O)N2[C@@H](Cc3ccc(O)cc3)C(=O)N(Cc3cccc(N4CCCC4)c3)C[C@@H]2N1C(=O)NCc1ccccc1 [Compound 125]	
		C=CCN1CC(=O)N2[C@@H](Cc3ccc(OP(=O)(O)O)cc3)C(=O)N(Cc3ccc4c(c3)OCCO4)C[C@@H]2N1C(=O)NCc1ccccc1 [Compound 182]	GI50 [1, 5]: 0.8 ± 0.1 µM; GI50 [2, 6]: 1 ± 0.1 µM
2.1	2.7	CN1CC(=O)N2[C@@H](Cc3ccc(O)cc3)C(=O)N(Cc3cccc(C(F)(F)F)c3)C[C@@H]2N1C(=O)NCc1ccccc1 [Compound 14]	
3.4 ± 0.4	3.7 ± 0.4	CCCN1CC(=O)N2[C@@H](Cc3ccc(O)cc3)C(=O)N(Cc3cccc(N4CCOCC4)c3)C[C@@H]2N1C(=O)NCc1ccccc1 [Compound 96]	
19 ± 1.6	12 ± 0.7	CN1CC(=O)N2[C@@H](Cc3ccc(O)cc3)C(=O)N(Cc3ccc4cn[nH]c4c3)C[C@@H]2N1C(=O)NCc1ccccc1 [Compound 64]	
3.7 ± 0.6	6.8 ± 1.4	C#CCN1CC(=O)N2[C@@H](Cc3ccc(O)cc3)C(=O)N(Cc3ccc4ncsc4c3)C[C@@H]2N1C(=O)NCc1ccccc1 [Compound 113]	
9.5 ± 1.1	10 ± 1.3	C=CCN1CC(=O)N2[C@@H](Cc3ccc(O)cc3)C(=O)N(Cc3ccc4c(c3)OCCN4C)C[C@@H]2N1C(=O)NCc1ccccc1 [Compound 119]	
1.1 ± 0.1	1.3 ± 0.3	C=CCN1CC(=O)N2[C@@H](Cc3ccc(O)cc3)C(=O)N(Cc3ccc(Cl)c4cccnc34)C[C@@H]2N1C(=O)NCc1ccccc1 [Compound 109]	
		C=CCN1CC(=O)N2[C@@H](Cc3ccc(O)cc3)C(=O)N(Cc3cccc4c3OCCO4)C[C@@H]2N1C(=O)NCc1ccccc1 [Compound 173]	GI50 [1, 5]: 0.8 ± 0.1 µM; GI50 [2, 6]: 0.6 ± 0.1 µM
28.6 ± 2	> 50	CC(C)N(C)c1cc(CN2C[C@H]3N(C(=O)CN(C)N3C(=O)NCc3ccccc3)[C@@H](Cc3ccc(O)cc3)C2=O)ccc1Cl [Compound 33]	
14.7 ± 2.6	34.4 ± 9.6	CCN(CC)c1cc(F)ccc1[C@H](C)N1C[C@H]2N(C(=O)CN(C)N2C(=O)NCc2ccccc2)[C@@H](Cc2ccc(O)cc2)C1=O [Compound 41]	
< 0.4	< 0.4	C=CCN1CC(=O)N2[C@@H](Cc3ccc(O)cc3)C(=O)N(Cc3cccc(OCCN4CCOCC4)c3)C[C@@H]2N1C(=O)NCc1ccccc1 [Compound 104]	
6.9	8.5	C[C@H](c1cccc(N(C)C)c1)N1C[C@H]2N(C(=O)CN(C)N2C(=O)NCc2ccccc2)[C@@H](Cc2ccc(O)cc2)C1=O [Compound 38]	
25.4	3.9	CN1CC(=O)N2[C@@H](Cc3ccc(O)cc3)C(=O)N(Cc3ccc(F)cc3C(F)(F)F)C[C@@H]2N1C(=O)NCc1ccccc1 [Compound 23]	
5.1 ± 0.3	3.1 ± 0.3	C[C@H]1[C@H]2N(C(=O)CN(C)N2C(=O)NCc2ccccc2)[C@@H](Cc2ccc(O)cc2)C(=O)N1Cc1ccc(Cl)c(N(C)C)c1 [Compound 57]	
2.4 ± 0.3	1.3 ± 0.4	COC(=O)c1ccccc1Cn1ncc2c(CN3C[C@H]4N(C(=O)CN(C)N4C(=O)NCc4ccccc4)[C@@H](Cc4ccc(O)cc4)C3=O)cccc21 [Compound 74]	
4 ± 0.5	3.7 ± 0.5	CC(C)N1CC(=O)N2[C@@H](Cc3ccc(O)cc3)C(=O)N(Cc3ccc(F)cc3F)C[C@@H]2N1C(=O)NCc1ccccc1 [Compound 146]	
0.2 ± 0.02	0.2 ± 0.02	C=CCN1CC(=O)N2[C@@H](Cc3ccc(O)cc3)C(=O)N(Cc3ccc(F)c4scnc34)C[C@@H]2N1C(=O)NCc1ccccc1 [Compound 194]	
		C=CCN1CC(=O)N2[C@@H](Cc3ccc(OP(=O)(O)O)cc3)C(=O)N(Cc3cc(F)c(F)cc3N(C)C)C[C@@H]2N1C(=O)NCc1ccccc1 [Compound 133]	GI50 [1, 5]: 2.1 ± 1.8 µM; GI50 [2, 6]: 2.3 ± 0.1 µM
7.2 ± 0.7	7.4 ± 0.6	CN1CC(=O)N2[C@@H](Cc3ccc(O)cc3)C(=O)N(Cc3ccc4cccnc4c3)C[C@@H]2N1C(=O)NCc1ccccc1 [Compound 70]	
4.7	7.3	CN(Cc1ccccc1N)c1cccc(CN2C[C@H]3N(C(=O)CN(C)N3C(=O)NCc3ccccc3)[C@@H](Cc3ccc(O)cc3)C2=O)c1 [Compound 65]	
0.3 ± 0.03	0.6 ± 0.2	CN1CC(=O)N2[C@@H](Cc3ccc(O)cc3)C(=O)N(Cc3cccc4cnn(Cc5cccc(N)c5)c34)C[C@@H]2N1C(=O)NCc1ccccc1 [Compound 67]	

GI50 [1, 3] [µM]	GI50 [2, 4] [µM]	SMILES	also measured
2.3 ± 0.4	2.4 ± 0.2	C=CCN1CC(=O)N2[C@@H](Cc3ccc(O)cc3)C(=O)N(Cc3cccc(NC)c3)C[C@@H]2N1C(=O)NCc1ccccc1 [Compound 163]	
7.93	16	Cc1ccc(N(C)C)c(CN2C[C@H]3N(C(=O)CN(C)N3C(=O)NCc3ccccc3)[C@@H](Cc3ccc(O)cc3)C2=O)c1 [Compound 29]	
2.3 ± 0.1	2.3 ± 0.1	C=CCN1CC(=O)N2[C@@H](Cc3ccc(O)cc3)C(=O)N(Cc3ccc(OC(F)(F)F)cc3)C[C@@H]2N1C(=O)NCc1ccccc1 [Compound 181]	
1.8 ± 0.1	1.9 ± 0.2	C=CCN1CC(=O)N2[C@@H](Cc3ccc(O)cc3)C(=O)N(Cc3cccc4c3OCCO4)C[C@@H]2N1C(=O)NCc1ccc(Cl)c(Cl)c1 [Compound 174]	
14.3 ± 7	12.8 ± 1.6	C=CCN1CC(=O)N2[C@@H](Cc3ccc(O)cc3)C(=O)N([C@H](C)c3ccccc3)C[C@@H]2N1C(=O)NCc1ccccc1 [Compound 153]	
5 ± 1	8.1 ± 0.7	CN(C1CC1)C1CC=CC=C1CN1C[C@H]2N(C(=O)CN(C)N2C(=O)NCc2ccccc2)[C@@H](Cc2ccc(O)cc2)C1=O (stereo partly shown) [Compound 31]	
4.2 ± 0.5	3.8 ± 0.4	CN1CC(=O)N2[C@@H](Cc3ccc(NC=O)cc3)C(=O)N(Cc3cccc4ccccc34)C[C@@H]2N1C(=O)NCc1ccccc1 [Compound 44]	
14.9 ± 2.2	12.9 ± 1	O=C1[C@H](Cc2ccc(O)cc2)N2C(=O)CON(C(=O)NCc3ccccc3)[C@H]2CN1Cc1cccc2cccnc12 [Compound 92]	
3.6 ± 0.7	4.6 ± 0.5	C#CCn1cc2c(CN3C[C@H]4N(C(=O)CN(C)N4C(=O)NCc4ccccc4)[C@@H](Cc4ccc(O)cc4)C3=O)cccc2n1 [Compound 71]	
5.4	14.1	CC(C)N(C)c1ccccc1CN1C[C@H]2N(C(=O)CN(C)N2C(=O)NCc2ccccc2)[C@@H](Cc2ccc(O)cc2)C1=O [Compound 30]	
3.7 ± 0.3	2.2 ± 0.2	CN1CC(=O)N2[C@@H](Cc3ccc(O)cc3)C(=O)N(Cc3cccc4cnn(Cc5ccc(N)cc5)c34)C[C@@H]2N1C(=O)NCc1ccccc1 [Compound 78]	
		C=CCN1CC(=O)N2[C@@H](Cc3ccc(OP(=O)(O)O)cc3)C(=O)N(Cc3ccc(OC)cc3)C[C@@H]2N1C(=O)NCc1ccccc1 [Compound 179]	GI50 [1, 5]: 1.6 ± 0.1 µM; GI50 [2, 6]: 1.5 ± 0.1 µM
6.5 ± 0.6	9.6 ± 1.6	CN1CC(=O)N2[C@@H]([C@H](O)c3ccc(O)cc3)C(=O)N(Cc3ccc(F)cc3F)C[C@@H]2N1C(=O)NCc1ccccc1 [Compound 86]	
2.39	2.73	CN1CC(=O)N2[C@@H](Cc3ccc(O)cc3)C(=O)N(Cc3ccc(Cl)cc3)C[C@@H]2N1C(=O)NCc1ccccc1 [Compound 3]	
1 ± 0.2	0.8 ± 0.1	C=CCN1CC(=O)N2[C@@H](Cc3ccc(O)cc3)C(=O)N(Cc3cccc4cccnc34)C[C@@H]2N1C(=O)NCc1ccc(Cl)c(Cl)c1 [Compound 169]	
1.67	5.25	COc1cccc(CN2CC3N(C(=O)CN(C)N3C(=O)NCc3ccccc3)[C@@H](Cc3ccc(O)cc3)C2=O)c1OC (stereo partly shown) [Compound 21]	
0.9 ± 0.1	1.1 ± 0.07	C=CCN1CC(=O)N2[C@@H](Cc3ccc(O)cc3)C(=O)N(Cc3ccc(Cl)c(N(C)C)c3)C[C@@H]2N1C(=O)NCc1ccccc1 [Compound 101]	
10.8	24.7	CC(C)N(C)c1cccc([C@@H](C)N2C[C@H]3N(C(=O)CN(C)N3C(=O)NCc3ccccc3)[C@@H](Cc3ccc(O)cc3)C2=O)c1 [Compound 42]	
16.9 ± 1.9	47.2 ± 12.1	CC(C)N(C)c1cccc(Cl)c1CN1C[C@H]2N(C(=O)CN(C)N2C(=O)NCc2ccccc2)[C@@H](Cc2ccc(O)cc2)C1=O [Compound 32]	
2.1 ± 0.3	2.8 ± 0.2	C=CCN1CC(=O)N2[C@@H](Cc3ccc(O)cc3)C(=O)N(Cc3ccc(C)c(N4CCOCC4)c3)C[C@@H]2N1C(=O)NCc1ccccc1 [Compound 105]	
		C=CCN1CC(=O)N2[C@@H](Cc3ccc(OC(=O)NCCN(C)C)cc3)C(=O)N(Cc3ccc(F)cc3F)C[C@@H]2N1C(=O)NCc1ccccc1 [Compound 143]	GI50 ([1]; HCT-116, 48 h): 1.2 ± 0.1 µM; GI50 ([2]; SW480, 48 h): 1.2 ± 0.1 µM

SMILES	GI50 [1, 3] [µM]	GI50 [2, 4] [µM]	also measured
C[C@H](c1ccc(F)c(N(C)C)c1)N1C[C@H]2N(C(=O)CN(C)N2C(=O)NCc2ccccc2)[C@@H](Cc2ccc(O)cc2)C1=O [Compound 37]	9.2 ± 0.9	10.4 ± 0.8	
